According to US20100035287A1, “Secreted Luciferase Fluorescent Protein Conjugate Nucleic Acid Construct and Uses Thereof” (THE GENERAL HOSPITAL CORPORATION, priority 2006, published 2010):

Key:
BiP, 293T cells = assay: Western blot for BiP; format: cell-based, human; conditions: DTT 0.03-2 mM, 24 h, dose dependent
Protocol: (§1) Fold induction is calculated with respect to the control non-infected/non-treated cells. […] Blot is also probed with Gluc antibody as well as alpha-tubulin antibody for equal loading. […] The mean±S.E.M. is presented on the graphs (n=3), with *p<0.01 as compared to the non-treated cells and as calculated by the student's t-Test. NS=not significant
Western blot. Total cell lysates were prepared in lysis buffer containing 150 mM NaCl, 50 mM TRIS, pH 8.0, 1% NP-40, 0.5% deoxycholate, 0.1% SDS, and protease inhibitors (PI Complete; Boehringer Mannheim, Indianapolis, Ind.). Forty μg protein were electrophoresed in 12.5% SDS-polyacrylamide gels, and transferred to nitrocellulose membranes (Bio-Rad). […] Membranes were then incubated with horseradish peroxidase (HRP) conjugated to secondary antibodies: sheep anti-mouse IgG-HRP (1:10,000) or donkey anti-rabbit IgG-HRP (1:10,000) (Amersham Pharmacia Biotech, Piscataway, N.J.). For protein detection we used SuperSignal West Pico Chemiluminescent Substrate™ (Pierce, Rockford, Ill.).

[1] = system: ER stress (Gluc secretion), 293T cells; assay: Real-time monitoring of ER stress with Gluc (Gluc activity in conditioned medium); format: cell-based, human
Protocol: Fold induction is calculated with respect to the control non-infected/non-treated cells. […] The mean±S.E.M. is presented on the graphs (n=3), with *p<0.01 as compared to the non-treated cells and as calculated by the student's t-Test. NS=not significant
Gaussia luciferase for monitoring of ER stress in real-time. Splicing of the XBP-1 mRNA to sXBP1 and expression of BiP protein are generally used as biomarkers for ER stress.

[2] = system: spliced XBP-1 mRNA, 293T cells; assay: Real-time qRT-PCR for spliced XBP-1 mRNA; format: cell-based, human
Protocol: as §1
ER stress: total RNA isolation, reverse transcription and real-time qPCR. 293T cells were plated at 1×10^6 cells/mL in a 12-well plate. Cells were treated with different concentrations of DTT (Sigma) for 4 h. Total RNA was isolated using the RNeasy mini kit (Quiagen, Valencia, Calif.) and concentration was determined by measuring the OD260 using a spectrophotometer (Bio-Rad, Hercules, Calif.). Reverse transcription was performed on 200 ng RNA (in 10 μl) at 37° C. for 60 min using an Omniscript reverse transcription kit (Quiagen). Two μL of each cDNA sample were used for real-time PCR. Biological triplicates were measured twice. The following primers were used: Forward 5′-[…]-3′ (SEQ ID NO: 10) and Reverse 5′-[…]-3′ (SEQ ID NO: 11). These primers were designed to span a 26 bp intron in the unspliced XBP1 mRNA [12]. […] The fold increase was calculated based on Ct values of treated cells relative to control non-infected and non-treated cells normalized to the values for GAPDH endogenous control.

[3] = system: secretory pathway (Gluc secretion); assay: Bioluminescence from media of Gluc expressing cells treated with secretory pathway inhibitors (FIG. 11); format: cell-based
Source text: Nocodazone disrupts microtubule function and BrefeldinA disrupts golgi function.
This confirms Gluc is being secreted the secretory pathway.

[4] = system: secretory pathway (Gluc-YFP secretion); assay: Gluc-YFP fusion: secretion and localization after BFA or nocodazole; format: cell-based, human; conditions: for secretion of Gluc-YFP luciferase activity: cells expressing Gluc-YFP, conditioned medium 24 h after treatment
Protocol: Blocking of secretory pathway. […] Forty-eight h post-infection, cells were treated with either 5 μg/ml BFA, 3 μg/ml monensin A (MonA), 10 μg/ml nocodazole (Noc) or 5 μg/ml cytochalasin B (CytB) all obtained from Sigma.

[5] = system: secretory pathway (Gluc secretion), 293T cells; assay: Blocking of secretory pathway: Gluc activity in conditioned medium of drug-treated cells; format: cell-based, human; conditions: 24 h, 5 μg/ml BFA, 3 μg/ml monensin A, 10 μg/ml nocodazole, 5 μg/ml cytochalasin B
Protocol: Cells were treated for 24 h with different drugs which interfere with the secretory pathway. […] Scale bar, 10 μm. Luciferase activity. […] For Fluc detection, 450 μM Beetle D-luciferin (Molecular Imaging Products, Ann Arbor, Mich.) was added directly to the viable cells, in a 96 well plate and measured as above. The signal was measured for 10 sec and integrated over 2 sec in both cases. Blocking of secretory pathway.

[6] = system: unfolded protein response (GRP78); assay: Immunoblotting for GRP78, unfolded protein response (FIG. 12); format: cell-based; conditions: cells treated with tunicamycin
Protocol: Immunobloting for GRP76 of protein lysates from cells not expressing Gluc in the absence (untreated) or presence of tunicamycin, an agent which upregulates the UPR, compared with untreated cells expressing the Gluc-YFP conjugate protein.
To assess the effect of Gluc expression on cell physiology and to ask if Gluc expression triggers an ER stress response and/or induces the unfolded protein response (UPR), cells were treated with tunicamycin, an agent which upregulates the UPR in the presence or absence of Gluc expression.

| Molecule | bioluminescence from the media compared to untreated cells [3] | secretion of Gluc-YFP luciferase activity [4] | decrease of Gluc secretion into the conditioned medium [5] | other results |
| --- | --- | --- | --- | --- |
| O[C@H](CS)[C@H](O)CS (racemic) [DTT, dithiothreitol] | – | – | – | amount of BiP (BiP, 293T cells): increased; Gluc secretion in the conditioned medium over time ([1]; 1 mM DTT, real-time monitoring, started to recover after 4 h, normal level after 24 h): complete inhibition of secretion for the first 3 h; secretion of Gluc ([1]; DTT 0.03-2 mM, 4 h): decrease; extent of XBP-1 mRNA splicing ([2]; DTT 0.03-2 mM, 4 h, dose dependent): increased |
| C[C@H]1CCC/C=C/[C@@H]2C[C@H](O)C[C@H]2[C@H](O)/C=C/C(=O)O1 [BFA, brefeldinA] | reduced | blocked to the same extent as for Gluc | about 90% | localization of Gluc-YFP fusion protein ([4]; real-time confocal microscopy on live cells): trapped in the ER |
| C=C1[C@@H](C)[C@H]2[C@H](Cc3ccccc3)NC(=O)[C@]23OC(=O)/C=C/[C@H](O)CCC[C@@H](C)C/C=C/[C@H]3[C@@H]1O [cytochalasin B] | – | – | ~30% | – |
| CC[C@@]1([C@@H]2O[C@@H]([C@H]3O[C@@](O)(CO)[C@H](C)C[C@@H]3C)C[C@@H]2C)CC[C@H]([C@]2(C)CC[C@]3(C[C@H](O)[C@@H](C)[C@@H]([C@@H](C)[C@@H](OC)[C@H](C)C(=O)O)O3)O2)O1 [monensin A] | – | – | ~65% | – |
| COC(=O)Nc1nc2ccc(C(=O)c3cccs3)cc2[nH]1 [nocodazole] | reduced | blocked to the same extent as for Gluc | ~75% | – |
| tunicamycin | – | – | – | decrease in Gluc secretion ([1]; tunicamycin 3 μg/ml for 4 h): over 90%; expression of GRP78 [6]: detected; increase in spliced XBP-1 message ([2]; tunicamycin 3 μg/ml for 4 h): 9 fold |
